The text below walks through data of patent US11311504B2 (priority 2012, dated 2022).

In the test the test system is rat. As to conditions: in vivo.

In the case of `CC(=O)Nc1ccc(O)cc1` [Paracetamol], the “timepoint of peak effect” value is given as 120 min p. appl.
